Values quoted from earlier work in patent US10966960B2 (Treeway TW001 B.V., priority 2017, dated 2021).
Converted amounts (≈) assume the structure as drawn.

Details: 25° C.

solubility in water: ~1850 µg/mL (≈ 10.6 mM)
SMILES: CC1=NN(c2ccccc2)C(=O)C1 [edaravone, 3-methyl-1-phenyl-2-pyrazolin-5-one]
